PMC8152814, “The modulatory role of sulfated and non-sulfated small molecule heparan sulfate-glycomimetics in endothelial dysfunction: absolute structural clarification, molecular docking and simulated dynamics, SAR analyses and ADMET studies” (RSC Medicinal Chemistry, 2021)

How the values were obtained:
[1] = test system: Caco-2 cells; assay: Caco-2 permeability (bi-directional); assay type: in vitro ADME
Procedure: (§1) Physicochemical and ADMET properties of representative glycomimetics. […]
(§2) ymax = mean vehicle control response
(§3) Caco-2 Permeability (A-B or Bi-directional)
(§4) Caco-2 cells (ATCC, Virginia, USA) are used between passage numbers 40-60. Cells are seeded onto Millipore Multiscreen Transwell plates at 1 x 10^5 cells/cm2. The cells are cultured in DMEM and media is changed every two or three days. On day 20 the permeability study is performed. Cell culture and assay incubations are carried out at 37 °C in an atmosphere of 5 % CO2 with a relative humidity of 95%. On the day of the assay, the monolayers are prepared by rinsing both apical and basolateral surfaces twice with Hanks Balanced Salt Solution (HBSS) at the desired pH warmed to 37 °C. Cells are then incubated with HBSS at the desired pH in both apical and basolateral compartments for 40 min to stabilise physiological […]
(§5) The dosing solutions are prepared by diluting test compound with assay buffer to give a final test compound concentration of 10 µM (final DMSO concentration of 1 % v/v). The fluorescent integrity marker lucifer yellow is also included in the dosing solution. Analytical standards are prepared from test compound DMSO dilutions and transferred to buffer, maintaining a 1% v/v DMSO concentration. Typical assay buffer is composed of supplemented HBSS pH 7.4 but a range of other buffers and pH values can be used.
(§6) For assessment of A-B permeability, HBSS is removed from the apical compartment and replaced with test compound dosing solution. The apical compartment insert is then placed into a companion plate containing fresh buffer (containing 1 % v/v DMSO). For assessment of B-A permeability, HBSS is removed from the companion plate and replaced with test compound dosing solution. Fresh buffer (containing 1 % v/v DMSO) is added to the apical compartment insert, which is then placed into the companion plate.
(§7) At 120 min the apical compartment inserts and the companion plates are separated and apical and basolateral samples diluted for analysis. Test compound permeability is assessed in duplicate. Compounds of known permeability characteristics are run as controls on each assay plate. Test and control compounds are quantified by LC-MS/MS cassette analysis using an 8-point calibration with appropriate dilution of the samples. The starting concentration (C0) is determined from the dosing solution and the experimental recovery calculated from C0 and both apical and basolateral compartment concentrations.
(§8) The integrity of the monolayer throughout the experiment is checked by monitoring lucifer yellow permeation using fluorimetric analysis. Lucifer yellow permeation is high if monolayers have been damaged. If a lucifer yellow Papp value is above a pre-defined threshold in one individual test compound well, the compound may be re-tested or an n = 1 result is reported.
(§9) If lucifer yellow Papp values are above the threshold in both replicate wells for a test compound, the compound is re-tested. If this re-occurs upon repeat in both wells then toxicity or inherent fluorescence of the test compound is assumed.
(§10) The permeability coefficient (Papp) for each compound is calculated from the following […]
(§11) Where dQ/dt is the rate of permeation of the drug across the cells, C0 is the donor compartment concentration at time zero and A is the area of the cell monolayer. C0 is obtained from analysis […]
(§12) For bi-directional experiments, an efflux ratio (ER) is calculated from mean A-B and B-A data.
(§13) Three control compounds are screened alongside the test compounds, atenolol (human absorption 50%), propranolol (human absorption 90%) and talinolol (a substrate for […]

[2] = in vitro; settings: mouse, microsomes, pH 7.4
[3] = Caco-2 permeability (bi-directional); assay type: in vitro ADME; settings: human, Caco-2; A2B, 10 µM, 120 min
Procedure: as §1, §2, §3, §4, §5, §6, §7, §8, §9, §10, §11, §12, §13

Caco-2 (A2B Papp) ([1]; A2B, 10 µM, 120 min)	SMILES	Caco-2 cell permeability levels [1]	Caco-2 (B2A Papp) ([1]; 10 µM, 120 min)	half-life at 0.75 h, 3 µM [2] [h]	Papp A→B at 2 h, 10 µM [3] [×10⁻⁶ cm/s]
Not detected	O=C([O-])c1cc(OC[C@H](COS(=O)(=O)[O-])OS(=O)(=O)[O-])ccc1OCC(COS(=O)(=O)[O-])OS(=O)(=O)[O-].[Na+].[Na+].[Na+].[Na+].[Na+] (mixture of isomers) [β-5, sodium 5-((R)-2,3-bis(sulfonatooxy)propoxy)-2-(2,3-bis(sulfonatooxy)propoxy)benzoate]	low or not detected	Not detected		
	COC(=O)c1cc(OC[C@@H](COS(=O)(=O)[O-])OS(=O)(=O)[O-])ccc1OCCCCOS(=O)(=O)[O-].[Na+].[Na+].[Na+] [Compound S-10, sodium (S)-3-(3-(methoxycarbonyl)-4-(4-(sulfonatooxy)butoxy)phenoxy)propane-1,2-diyl bis(sulfate)]			69.3	
	COC(=O)c1cc(OC[C@H](COS(=O)(=O)[O-])OS(=O)(=O)[O-])ccc1OCCCCOS(=O)(=O)[O-].[Na+].[Na+].[Na+] [Compound R-10, sodium (R)-3-(3-(methoxycarbonyl)-4-(4-(sulfonatooxy)butoxy)phenoxy)propane-1,2-diyl bis(sulfate)]	low or not detected	Not detected		0.931
